{"source": "patent US20240238218A1", "about": "“[…] A […] ACTIVE COMPOUND AND METHOD OF PREPARATION THEREOF” (GW Research Limited, priority 2021, published 2024)", "key": {"RjOrl: Swiss mice": {"tested_on": "RjOrl: Swiss mice", "assay": "Mouse 6 Hz (44 mA) psychomotor seizure test", "type": "in vivo", "conditions": "for Forelimb clonus (mean ± s.e.m.): score 0-2", "description": "The 6 Hz Psychomotor Test, which detects anticonvulsant activity, follows that described by Brown et al. (J. Pharmacol. Exp. Ther. 107, 273-283, 1953).\nMale RjOrl: Swiss mice, 5 weeks old, weighing 28-38 g at the beginning of the experiment. Animals were acclimatized to the test facility for at least 5 days after delivery and randomly housed in groups of 3-4 in macrolon cages on wood litter with free access to food and water.\nBefore transcorneal stimulation, a drop of tetracaine solution (2%) was applied on each eye of the mouse for local anesthesia. Between 1-10 minutes later, at the pre-treatment time specified for the test compound, the mice were administered a rectangular current (44 mA, rectangular pulse: 0.2 ms pulse width, 3 s duration, 6 Hz) via corneal electrodes connected to a constant current shock generator.\nThe number of seizures as reflected by forelimb clonus were recorded immediately after current administration. Forelimb clonus was scored as absent (0=no forelimb clonus), mild (1=clonus with one forelimb) and strong (2=clonus with both forelimbs).\n[…] The experimenters were blinded to the treatment. The cages were randomly assigned to a treatment code, each designating one treatment group.\nCompound I was administered intraperitoneally at 20 and 50 mg/kg, 30 minutes before the test, and at 100 and 200 mg/kg, 60 minutes before the test and were compared with the vehicle control (5% ethanol, 10% […], 85% physiological saline).\nValproate (300 mg/kg i.p.), administered 30 minutes before the test, was used as reference substance and was compared with the vehicle control (5% ethanol, 10% Kolliphor HS15, 85% physiological saline).\nTest compound: Compound I dissolved in 5% ethanol, 10% Kolliphor HS15, 85% physiological saline.\nVehicle control: 5% ethanol, 10% Kolliphor HS15, 85% physiological saline.\nReference: Valproate (300 mg/kg), dissolved in 5% ethanol, 10% Kolliphor HS15, 85% physiological saline.\nData were assumed to be non-normally distributed based on validation data, therefore non-parametric tests were utilized. Quantitative data (scores) with the test substance were analyzed by comparing treated groups with the corresponding vehicle control using Kruskal-Wallis test with Dunn's multiple comparisons test when the Kruskal-Wallis Test was significant. Quantitative data with the reference substance was analysed using Mann-Whitney U test."}, "[1]": {"tested_on": "mouse model of generalised seizure (tonic hind limb extensor convulsions)", "assay": "mini-MEST (maximal electroshock seizure threshold, minimal sample sizes) test in the mouse", "conditions": "50 mg/kg i.p., 30 min post dose", "description": "The maximal electroshock seizure threshold (MEST) test is widely utilized preclinically to evaluate pro- or anti-convulsant properties of test compounds (Loscher et al., 1991).\nIn the MEST test the ability of a drug to alter the seizure threshold current required to induce hind limb tonic extensor convulsions is measured according to an “up and down” method of shock titration (Kimball et al., 1957). An increase in seizure threshold is indicative of anti-convulsant effect.\nThe ability of a test compound to alter the stimulus intensity, expressed as current (mA), required to induce the presence of tonic hind limb extensor convulsions, is assessed in the MEST.\nAll animals were weighed at the beginning of the study and randomly assigned to treatment groups based on a mean distribution of body weight across groups.\nThe first animal within a treatment group was given a shock at the expected or estimated CC50 current. For subsequent animals, the current was lowered or raised depending on the convulsions outcome from the preceding animal in log scale intervals.\nData generated from each treatment group were used to calculate the CC50±SEM values for the treatment group.\nVehicle: (5% ethanol, 10% solutol in 85% Saline) was prepared as follows: 1 mL of ethanol, 2 mL of solutol were warmed to 60° C., in 17 mL of saline (1:2:17).\nThe test compound, described herein as Compound I, is as shown as Formula I. Test compound was administered at 50 mg/kg (i.p.) in a 1:2:17 ethanol:solutol:0.9% saline formulation.\nThe data for each treatment group were recorded as the number of +'s and 0's at each current level employed and this information is then used to calculate the CC50 value (current required for 50% of the animals to show seizure behaviour)±standard error.\nTest compound effects were also calculated as percentage change in CC50 from the vehicle control group.\nSignificant difference between drug-treated animals and controls were assessed according to Litchfield and Wilcoxon (1949)."}, "[2]": {"conditions": "20 mg/kg i.p., 30 minutes before the test"}, "[3]": {"conditions": "50 mg/kg i.p., 30 minutes before the test"}, "[4]": {"conditions": "100 mg/kg i.p., 60 minutes before the test"}, "[5]": {"conditions": "200 mg/kg i.p., 60 minutes before the test"}}, "data": [{"smiles": "C=C(C)[C@@H]1CC(O)C(C)=C[C@H]1c1c(O)cc(Br)cc1O", "note": "(single isomer, unassigned) [Compound I]", "values": [{"measurement": "Forelimb clonus, Compared with Vehicle B (i.p.) %", "setting": "RjOrl: Swiss mice; [2]", "result": 0, "unit": "%"}, {"measurement": "Forelimb clonus (mean ± s.e.m.)", "setting": "RjOrl: Swiss mice; [2]", "result": "0.8 ± 0.1"}, {"measurement": "Forelimb clonus, Compared with Vehicle B (i.p.) %", "setting": "RjOrl: Swiss mice; [3]", "result": "−38", "unit": "%"}, {"measurement": "Forelimb clonus (mean ± s.e.m.)", "setting": "RjOrl: Swiss mice; [3]", "result": "0.5 ± 0.1"}, {"measurement": "Slight sedation (mice affected)", "setting": "RjOrl: Swiss mice; 100 mg/kg i.p.", "result": "Two mice out of the 13"}, {"measurement": "Forelimb clonus, Compared with Vehicle B (i.p.) %", "setting": "RjOrl: Swiss mice; [4]", "result": "−88", "unit": "%"}, {"measurement": "Forelimb clonus (mean ± s.e.m.)", "setting": "RjOrl: Swiss mice; [4]", "result": "0.1 ± 0.1"}, {"measurement": "Tremor (mice affected)", "setting": "RjOrl: Swiss mice; 200 mg/kg i.p.", "result": "Two mice out of the 14"}, {"measurement": "Sedation (mice affected)", "setting": "RjOrl: Swiss mice; 200 mg/kg i.p., 14 mice", "result": "all mice showed slight (12 mice) to moderate (2 mice) sedation"}, {"measurement": "Forelimb clonus, Compared with Vehicle B (i.p.) %", "setting": "RjOrl: Swiss mice; [5]", "result": "−63", "unit": "%"}, {"measurement": "Forelimb clonus (mean ± s.e.m.)", "setting": "RjOrl: Swiss mice; [5]", "result": "0.3 ± 0.1"}, {"measurement": "CC50 +/− SEM", "setting": "[1]", "result": ">114", "unit": "mA"}, {"measurement": "tonic hindlimb convulsions in treatment group", "setting": "[1]; 6 animals", "result": "did not have any convulsions"}]}]}
